Where “and” joins values, the source holds several entries; their conditions need not be identical. Equal entries are not always repeated.
Legend:
[1] = system: intestinal erosion murine model; assay: Animal model for intestinal erosion (gastric irritation score); format: in vivo, Sprague-Dawley rats; details: for Mean Ulceration Score: 4 hours after treatment, score 0-4
Procedure: To assess whether a pharmaceutical composition disclosed herein reduced gastric irritation, experiments were conducted using an intestinal erosion murine model.
Sprague-Dawley rats were divided into seven experimental groups containing five animals each. After fasting overnight, the animals were challenged with one with one of seven different treatments. Group A was a control in which each mouse was orally administered 1% methylcellulose/0.5% polysorbate 80 vehicle only. Group B was a control in which each mouse was orally administered solvent/adjuvant vehicle only (gavage of 10% ethanol and 90% linseed oil). Group C was a control in which each mouse was orally administered 150 mg/kg aspirin. Group D was a control in which each mouse was orally administered 100 mg/kg ibuprofen suspended in 1% methylcellulose/0.5% polysorbate 80. Group E was the experimental group in which each mouse was administered a pharmaceutical composition disclosed herein (BC1054-100) comprising 100 mg/kg of ibuprofen, 10% ethanol, and 90% linseed oil. Group F was a control in which each mouse was orally administered 100 mg/kg ibuprofen suspended in 1% methylcellulose/0.5% polysorbate 80. Group G was the experimental group in which each mouse was administered a pharmaceutical composition disclosed herein (BC1054-200) comprising 200 mg/kg of ibuprofen, 10% ethanol, and 90% linseed oil. Animals were sacrificed 4 hours after treatment and the stomachs were examined for degree of hemorrhage and severity of mucosal erosive lesions. Gastric irritation was scored as follows: 0, no lesions; 1, hyperemia; 2, one or two slight lesions; 3, more than two slight lesions or severe lesions; and 4, very severe lesions. A score of 50% or more relative to Group C (aspirin-treated control group), which was set to 100%, was considered a positive score for gastric irritation.

[2] = system: TBS-induced colitis murine model; assay: Animal model for inflammatory bowel disease (TNBS-induced colitis); format: in vivo, C57BI/6 male mice; details: for Mean Colon Length / Mean Colon Weight / Mean Animal Weight: TNBS colitis; for Mean Colon Length / Mean Colon Weight / Endoscopy Colitis Severity Score Day 5: day 5; for Mean Animal Weight: oral dosing day -1 to day 5, Prednisolone 3 mg/kg, ibuprofen 20 mg/kg, BC1054-20 20 mg/kg, BC1054-30 30 mg/kg; for Endoscopy Colitis Severity Score Day 3 / Endoscopy Colitis Severity Score Day 5: video endoscopy, scale 0 to 4
Procedure: To assess the effectiveness of a pharmaceutical composition disclosed herein in treating an inflammatory bowel disease, experiments were conducted using a […] colitis murine model.
C57BI/6 male mice (6-7 weeks old) were divided into seven experimental groups containing at least ten animals each. On day 0, colitis was induced in mice from Groups B-G by intrarectal administration of 100 μL of TNBS (4 mg) in 50% ethanol under isoflurane anesthesia. Animals were dosed either once or three times a day from day −1 to day 5 with one of seven different treatments. Group A was a control in which each mouse was orally administered ethanol vehicle only. Group B was a control in which each mouse was orally administered 1% methylcellulose vehicle only. Group C was a control in which each mouse was orally administered solvent/adjuvant vehicle only (gavage of 10% ethanol and 90% linseed oil). Group D was a control in which each mouse was orally administered 3 mg/kg of Prednisolone. Group E was a control in which each mouse was orally administered 20 mg/kg of ibuprofen suspended in 1% methylcellulose (1 ml/kg) (no adjuvant). Group F was the experimental group in which each mouse was administered a pharmaceutical composition disclosed herein (BC1054-20) comprising 20 mg/kg of ibuprofen, 10% ethanol, and 90% linseed oil. Group G was the experimental group in which each mouse was administered a pharmaceutical composition disclosed herein (BC1054-30) comprising 30 mg/kg of ibuprofen, 10% ethanol, and 90% linseed oil. All animals were weighed daily and assessed visually for the presence of diarrhea and/or bloody stool. On day 3 and on day 5 colitis severity was assessed in all animals using video endoscopy, where images were taken and colitis severity scored visually by a blinded observer on a scale from 0 to 4 as follows: 0, normal; 1, loss of vascularity; 2, loss of vascularity and friability; 3, friability and erosions; and 4, ulcerations and bleeding. Following endoscopy on day 5, animals were sacrificed and the colon removed and its length and weight measured. Serum samples were obtained and the colon was fixed in 10% formalin. An additional piece of colon tissue was collected, weighed, and snap frozen in liquid nitrogen.

[3] = system: α-collagen antibody induced arthritis (ACAIA) murine model; assay: Alpha-collagen antibody induced arthritis (ACAIA) model for systemic arthritis; format: in vivo, Male BALB/c mice; details: for mean paw thickness compared to vehicle-treated Group 1M (significance): ANOVA with Tukey post hoc
Procedure: To assess the effectiveness of a pharmaceutical composition disclosed herein in treating arthritis, experiments were conducted using an α-collagen antibody induced arthritis (ACAIA) murine model that mimics a systemic arthritis like rheumatoid arthritis.
Male BALB/c mice were divided into eight groups, each containing 10 animals. To induce arthritic symptoms, mice from all eight groups were intravenously injected with 200 μL of an antibody solution comprising a 2 mg cocktail of four α-collagen II monoclonal antibodies (ARTHRITOMAB™, MD Biosciences) on study day 0 (study commencement), followed by a 200 μL intraperitoneal injection of a solution containing 100 μg lipopolysaccharide (LPS) on study day 3. Each group was subjected daily to a control or test treatment administered from day 0-11 as follows: Group 1 mice (1M) were treated orally with a vehicle preparation containing 1% methyl cellulose administered thrice daily; Group 2 mice (2M) were treated intraperitoneally with a positive control preparation containing 10 mg/kg etanercept (ENBREL®, Wyeth) administered once daily; Group 3 mice (3M) were treated orally with a 20 mg/kg test liquid formulation comprising ibuprofen and rapeseed oil (BC1054 LF-RO) administered once daily; Group 4 mice (4M) were treated orally with a 20 mg/kg test liquid formulation comprising ibuprofen and rapeseed oil (BC1054 LF-RO) administered thrice daily; Group 5 mice (5M) were treated orally with a 20 mg/kg test liquid formulation comprising ibuprofen and a glyceryl monolinoleate (MAISINE™ 35-1, Gattefosse) (BC1054 LF-MA) administered thrice daily; Group 6 mice (6M) were treated orally with a 20 mg/kg test solid formulation comprising ibuprofen and theobroma oil (BC1054 LF-TO) administered thrice daily; Group 7 mice (7M) were treated orally with a control preparation 1 comprising 20 mg/kg of ibuprofen administered thrice daily; and Group 8 mice (8M) were treated orally with a 20 mg/kg test solid formulation comprising ibuprofen and a waxy solid having a melting point of between 37° C. to 41° C. and comprising a mixture of saturated C10-C18 triglycerides ([…]® 39/01, Gattefosse) (BC1054 LF-GE) administered thrice daily (Table 6). The dose administered was calculated based on the assumption that each animal weighed, on average, 20 g. A fixed volume of 100 μL was administered to each mouse, except those animals receiving the positive control (2M) were administered 200 μL.
Arthritic development and clinical examinations were monitored in all mice on study day 0 shortly before arthritis induction and subsequently on study days 3-7, 9, 10 and 12 (study termination). To access arthritic development, both an arthritis score and paw thickness (plethysmography) measurements were obtained. The arthritis score was based on visual assessment of arthritis reactions using a 0-4 scale in ascending order of severity with Grade 0 indicating no arthritis reaction; Grade 1 indicating mild, but definite redness and swelling of the ankle/wrist or apparent redness and swelling limited to individual digits, regardless of the number of affected digits; Grade 2 indicating moderate to severe redness and swelling of the ankle/wrist; Grade 3 indicating redness and swelling of the entire paw including digits; and Grade 4 indicating maximally inflamed limb with involvement of multiple joints. Paw thickness was measured for both hind paws just above the foot pad and below the calcaneum using a dial caliper (Kroeplin, Munich, Germany). Mean values for paw thickness measurements were determined, and where appropriate, analysis of the data by ANOVA with Tukey post hoc analysis was applied to determine significance of treatment effects.
Clinical examinations included changes in body weight, condition of skin, fur, eyes, mucous membranes, occurrence of secretions and excretions (e.g. diarrhea), and autonomic activity (e.g. lacrimation, salivation, piloerection, pupil size, unusual respiratory pattern). […]

[4] = system: U937 monocyte cell line differentiated into macrophages; details: % therapeutic compound taken up by macrophages after 45 minutes incubation, HPLC; N=2
Procedure: Cultures of U937 monocyte cell line were grown in RPMI-1640 supplemented with 10% fetal calf serum (FCS) until the cells reached 90% confluent monolayer. These cells were then treated with PMA and incubated in a 37° C. incubator under 5% carbon dioxide until the cells differentiated into macrophages. […] After incubation for 45 minutes the test solution supernatants were removed and saved for analysis, and the cells were then washed in PBS several times and lysed using two cycles of freeze-thawing. Therapeutic compound concentration present in the test solution, test solution supernatant, and cell lyste fractions was measured by HPLC. The percentage therapeutic compound taken up by the macrophages was calculated using the following formula: % therapeutic compound adsorbed=100×(compound mass recovered from cell lysate)/(compound mass delivered in test solution−compound mass recovered from test solution supernatant).

[5] = day 6, 20 mg/kg PO thrice daily (Groups 4M-8M)
[6] = statistical comparison, doses as E9

CC(C)Cc1ccc(C(C)C(=O)O)cc1 (stereo not drawn) [ibuprofen]
% Aspirin Erosion ([1]; 100 mg/kg ibuprofen (Groups D, E), relative to Group C, 50% or more = positive score for gastric irritation): 75% and 75^1% | Mean Ulceration Score ([1]; 100 mg/kg ibuprofen oral (Groups D, E)): 3 | % Aspirin Erosion ([1]; 200 mg/kg ibuprofen (Groups F, G), relative to Group C, 50% or more = positive score for gastric irritation): 95% and 95^1% | Mean Ulceration Score ([1]; 200 mg/kg ibuprofen oral (Groups F, G)): 3.8 | Mean Colon Length ([2]; doses as E9): 7.9 cm | Mean Colon Weight ([2]; doses as E9): 267 mg | Mean Animal Weight [2]: 23.82 g | Endoscopy Colitis Severity Score Day 3 ([2]; doses as E9): 2.7 | Endoscopy Colitis Severity Score Day 5 ([2]; doses as E9): 2.2 | mean paw thickness compared to vehicle-treated Group 1M (significance) ([3]; 20 mg/kg PO thrice daily (Groups 4M-8M)): No significant differences were observed | Mean Rear Paw Thickness ([3]; day 0, 20 mg/kg PO thrice daily (Groups 4M-8M), 20 mg/kg): 1.71±0.02 mm and 1.71 mm | Mean Rear Paw Thickness ([3]; day 3, 20 mg/kg PO thrice daily (Groups 4M-8M)): 1.72 mm | Mean Rear Paw Thickness ([3]; day 4, 20 mg/kg PO thrice daily (Groups 4M-8M)): 1.64 mm | Mean Rear Paw Thickness ([3]; day 5, 20 mg/kg PO thrice daily (Groups 4M-8M)): 1.71 mm | Arthritis incidence [3, 5]: 8/10 | Mean Rear Paw Thickness [3, 5]: 1.90 mm | Mean Rear Paw Thickness ([3]; day 7, 20 mg/kg PO thrice daily (Groups 4M-8M), 20 mg/kg): 2.15±0.10 mm and 2.15 mm | Mean Rear Paw Thickness ([3]; day 9, 20 mg/kg PO thrice daily (Groups 4M-8M)): 2.08 mm | Mean Rear Paw Thickness ([3]; day 10, 20 mg/kg PO thrice daily (Groups 4M-8M)): 2.07 mm | Mean Rear Paw Thickness ([3]; day 12, 20 mg/kg PO thrice daily (Groups 4M-8M), 20 mg/kg): 2.02±0.08 mm and 2.02 mm

CC(=O)Oc1ccccc1C(=O)O [aspirin]
% Aspirin Erosion ([1]; Group C, 150 mg/kg aspirin, set to 100%): (100) % | Mean Ulceration Score ([1]; Group C, 150 mg/kg oral): 4

Etanercept
mean paw thickness compared to vehicle-treated Group 1M (significance) ([3]; once daily dosing (Groups 2M, 3M)): significantly decreased paw volume compared to the positive control mice on days 9, 10 and 12 | Mean Rear Paw Thickness ([3]; day 0, once daily (Etanercept 10 mg/kg IP, Group 2M; BC1054 LF-RO 20 mg/kg PO, Group 3M)): 1.70±0.02 mm and 1.70 mm | Mean Rear Paw Thickness ([3]; day 3, once daily (Etanercept 10 mg/kg IP, Group 2M; BC1054 LF-RO 20 mg/kg PO, Group 3M)): 1.73 mm | Mean Rear Paw Thickness ([3]; day 4, once daily (Etanercept 10 mg/kg IP, Group 2M; BC1054 LF-RO 20 mg/kg PO, Group 3M)): 1.64 mm | Mean Rear Paw Thickness ([3]; day 5, once daily (Etanercept 10 mg/kg IP, Group 2M; BC1054 LF-RO 20 mg/kg PO, Group 3M)): 1.63 mm | Mean Rear Paw Thickness ([3]; day 6, once daily (Etanercept 10 mg/kg IP, Group 2M; BC1054 LF-RO 20 mg/kg PO, Group 3M)): 1.96±0.05 mm and 1.96 mm | Arthritis incidence ([3]; day 6, once daily dosing (Groups 2M, 3M)): 9/10 | Mean Rear Paw Thickness ([3]; day 7, once daily (Etanercept 10 mg/kg IP, Group 2M; BC1054 LF-RO 20 mg/kg PO, Group 3M)): 1.95 mm | Mean Rear Paw Thickness ([3]; day 9, once daily (Etanercept 10 mg/kg IP, Group 2M; BC1054 LF-RO 20 mg/kg PO, Group 3M)): 1.88 mm | Mean Rear Paw Thickness ([3]; day 10, once daily (Etanercept 10 mg/kg IP, Group 2M; BC1054 LF-RO 20 mg/kg PO, Group 3M)): 1.80 mm | Mean Rear Paw Thickness ([3]; day 12, once daily (Etanercept 10 mg/kg IP, Group 2M; BC1054 LF-RO 20 mg/kg PO, Group 3M)): 1.77±0.02 mm and 1.77 mm | Arthritis incidence ([3]; day 12, once daily dosing (Groups 2M, 3M)): 1/10

CC(C)Cc1ccc(C(C)C(=O)O)cc1 (stereo not drawn) [Formulation C, ibuprofen free acid]
Mean Mass Compound Uptake [4]: 0.4%

C[C@]12C=CC(=O)C=C1CC[C@@H]1[C@@H]2[C@@H](O)C[C@@]2(C)[C@H]1CC[C@]2(O)C(=O)CO [Prednisolone]
Mean Colon Length ([2]; doses as E9): 8.4 cm | Mean Colon Weight ([2]; doses as E9): 267 mg | Mean Animal Weight [2]: 23.33 g | mean colitis scores compared to Group B (TNBS-treated control group) [2, 6]: statistically significant reduced mean colitis scores on both day 3 and day 5 | mean colon length compared to Group B (TNBS-treated control group) [2, 6]: statistically significant increase in mean colon length | Endoscopy Colitis Severity Score Day 3 ([2]; doses as E9): 2.3^7 | Endoscopy Colitis Severity Score Day 5 ([2]; doses as E9): 1.7^8
